These results are taken from patent publication US9834571B2, “Compounds for inhibiting cell proliferation in EGFR-driven cancers” (ARIAD Pharmaceuticals, Inc., priority 2012, dated 2017).

As usually defined, the IC50 is the concentration needed to halve the response being measured.

SMILES strings stand for the structures. Read-outs that look alike come from different tables or passages of the source. Some results are limits rather than exact numbers.

Test [1] deals with BaF3 cells expressing wildtype EGFR. As to the kind of experiment: Antiproliferative activity (MTT) against control BaF3 cells expressing wildtype EGFR. The note with it: Mus musculus. In kind it is cell-based. In a few lines: (§1)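 Compounds were tested on BaF3 cells bearing target EGFR mutations and on control BaF3 cells with wildtype EGFR; viability was then determined by MTT.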

Test [2] has as its target T1, BaF3 cells expressing the target EGFR mutations (Homo sapiens, UniProt P00533, T790M, cells depend on it, form not given).
T1 construct: IC50, BAF3 EGFR DEL T790M PURO POOL; other: BAF3 EGFR DEL T790M PURO POOL cells, MTT; other: BAF3 EGFR DEL T790M PURO POOL cells; MTT
As to the kind of experiment: Antiproliferative activity (MTT) against BaF3 cells expressing the target EGFR mutations. In kind it is cell-based. The note with it: BAF3 EGFR DEL T790M PURO POOL cells, read-out: IC50, BAF3 EGFR DEL T790M PURO POOL. The gist of the method:
as §1

Test [3] concerns the target T2, BaF3 cells expressing the target EGFR mutations (Homo sapiens, UniProt P00533, T790M/L858R, cells depend on it).
T2 construct: IC50, BAF3 EGFR L858R-T790M PURO POOL; other: BAF3 EGFR L858R-T790M PURO POOL cells, MTT; IC50, BAF3 EGFR L858R-T790M PURO POOL; other: BAF3 EGFR L858R-T790M PURO POOL cells; MTT
Described as above. In kind it is cell-based. The note with it: BAF3 EGFR L858R-T790M PURO POOL cells, read-out: IC50, BAF3 EGFR L858R-T790M PURO POOL. The gist of the method:
as §1

The target of test [4] is human EGFR (native sequence) (Homo sapiens, UniProt P00533). As to the kind of experiment: Kinase inhibitory activity against human EGFR (native sequence). Type of test: biochemical. The note with it: 10 μM ATP, read-out: IC50 for kinase inhibition, EGFR. In a few lines: (§2)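 Singlicate 10 pt curves; top conc. 3 μM; ATP 10 μM.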
human EGFR (native sequence), sequence (P00533 25-1210): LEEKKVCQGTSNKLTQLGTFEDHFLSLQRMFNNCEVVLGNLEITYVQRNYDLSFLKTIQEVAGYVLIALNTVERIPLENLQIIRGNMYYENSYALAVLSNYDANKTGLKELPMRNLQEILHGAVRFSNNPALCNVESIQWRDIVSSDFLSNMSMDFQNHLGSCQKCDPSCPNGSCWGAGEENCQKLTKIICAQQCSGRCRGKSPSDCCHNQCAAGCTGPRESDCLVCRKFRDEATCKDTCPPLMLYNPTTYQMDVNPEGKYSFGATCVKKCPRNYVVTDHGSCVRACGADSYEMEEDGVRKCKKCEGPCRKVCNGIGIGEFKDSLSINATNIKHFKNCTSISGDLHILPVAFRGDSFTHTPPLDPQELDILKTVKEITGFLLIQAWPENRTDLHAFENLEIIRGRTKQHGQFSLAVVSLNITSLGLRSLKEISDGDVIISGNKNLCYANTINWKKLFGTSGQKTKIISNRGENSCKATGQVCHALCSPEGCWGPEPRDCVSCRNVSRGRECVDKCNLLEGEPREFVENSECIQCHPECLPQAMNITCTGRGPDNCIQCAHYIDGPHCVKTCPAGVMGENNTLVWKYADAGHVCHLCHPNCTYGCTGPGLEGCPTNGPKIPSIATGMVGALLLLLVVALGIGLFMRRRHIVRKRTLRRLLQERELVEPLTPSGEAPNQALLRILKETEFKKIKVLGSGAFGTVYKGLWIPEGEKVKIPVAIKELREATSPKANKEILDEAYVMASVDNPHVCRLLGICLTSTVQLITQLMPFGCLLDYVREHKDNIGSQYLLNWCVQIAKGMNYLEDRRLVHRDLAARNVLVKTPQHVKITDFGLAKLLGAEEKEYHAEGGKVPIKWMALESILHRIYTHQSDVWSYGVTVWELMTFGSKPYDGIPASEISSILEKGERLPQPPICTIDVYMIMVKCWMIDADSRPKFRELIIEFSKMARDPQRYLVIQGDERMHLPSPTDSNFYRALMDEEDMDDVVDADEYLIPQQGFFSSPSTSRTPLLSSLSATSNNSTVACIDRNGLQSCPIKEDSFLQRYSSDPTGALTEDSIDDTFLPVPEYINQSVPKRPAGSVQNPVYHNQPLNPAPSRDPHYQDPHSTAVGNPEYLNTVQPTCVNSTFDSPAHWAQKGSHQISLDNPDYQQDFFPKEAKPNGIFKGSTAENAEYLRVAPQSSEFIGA
A further test has as its target EGFR L858R/T790M (Homo sapiens, UniProt P00533, L858R/T790M). As to the kind of experiment: Kinase inhibitory activity against EGFR bearing the L858R/T790M double mutation. In kind it is biochemical. The note with it: 10 μM ATP, read-out: IC50 for kinase inhibition, EGFR L858R T790M. In a few lines: as §2
Another test deals with EGFR L858R (Homo sapiens, UniProt P00533, L858R). As to the kind of experiment: Kinase inhibitory activity against EGFR bearing the L858R mutation. The note with it: 10 μM ATP, read-out: IC50 for kinase inhibition, EGFR L858R. In kind it is biochemical. The gist of the method:
as §2

Setting [5] is: 10 pt curves, 3 μM top concentration.
[6] abbreviates: EGFR L858R/T790M double mutation.

EGFR L858R, sequence (P00533 25-1210 L858R): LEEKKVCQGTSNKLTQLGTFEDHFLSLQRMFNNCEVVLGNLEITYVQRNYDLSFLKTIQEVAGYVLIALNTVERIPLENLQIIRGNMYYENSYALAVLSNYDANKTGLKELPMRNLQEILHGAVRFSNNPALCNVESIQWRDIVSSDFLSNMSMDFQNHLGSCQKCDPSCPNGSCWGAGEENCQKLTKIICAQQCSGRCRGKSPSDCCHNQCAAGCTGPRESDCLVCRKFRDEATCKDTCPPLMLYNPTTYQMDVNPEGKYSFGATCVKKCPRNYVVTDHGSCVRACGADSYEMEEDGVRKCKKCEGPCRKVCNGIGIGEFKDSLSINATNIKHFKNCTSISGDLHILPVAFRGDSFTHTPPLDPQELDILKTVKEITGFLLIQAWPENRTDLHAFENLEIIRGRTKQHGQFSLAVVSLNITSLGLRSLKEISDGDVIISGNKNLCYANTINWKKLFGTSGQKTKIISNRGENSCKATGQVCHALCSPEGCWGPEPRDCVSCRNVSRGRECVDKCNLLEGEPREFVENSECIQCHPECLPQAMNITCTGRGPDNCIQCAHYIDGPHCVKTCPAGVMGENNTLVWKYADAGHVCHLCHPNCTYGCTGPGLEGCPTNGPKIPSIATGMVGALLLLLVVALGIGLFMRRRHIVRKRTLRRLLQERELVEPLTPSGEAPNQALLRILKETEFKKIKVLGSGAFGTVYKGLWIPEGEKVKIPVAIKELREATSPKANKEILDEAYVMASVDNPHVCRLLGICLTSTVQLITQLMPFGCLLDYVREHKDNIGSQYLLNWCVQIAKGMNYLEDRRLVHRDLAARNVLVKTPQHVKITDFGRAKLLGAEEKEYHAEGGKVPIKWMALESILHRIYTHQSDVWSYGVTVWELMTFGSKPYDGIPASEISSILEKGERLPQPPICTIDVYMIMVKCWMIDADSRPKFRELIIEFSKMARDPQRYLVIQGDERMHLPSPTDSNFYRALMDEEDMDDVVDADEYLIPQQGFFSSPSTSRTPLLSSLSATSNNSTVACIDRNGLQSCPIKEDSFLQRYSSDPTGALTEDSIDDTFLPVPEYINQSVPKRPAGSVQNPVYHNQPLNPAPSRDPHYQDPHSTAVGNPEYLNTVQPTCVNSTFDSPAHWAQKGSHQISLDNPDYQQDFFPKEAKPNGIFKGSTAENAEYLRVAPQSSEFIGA
EGFR L858R/T790M, sequence (P00533 25-1210 T790M/L858R): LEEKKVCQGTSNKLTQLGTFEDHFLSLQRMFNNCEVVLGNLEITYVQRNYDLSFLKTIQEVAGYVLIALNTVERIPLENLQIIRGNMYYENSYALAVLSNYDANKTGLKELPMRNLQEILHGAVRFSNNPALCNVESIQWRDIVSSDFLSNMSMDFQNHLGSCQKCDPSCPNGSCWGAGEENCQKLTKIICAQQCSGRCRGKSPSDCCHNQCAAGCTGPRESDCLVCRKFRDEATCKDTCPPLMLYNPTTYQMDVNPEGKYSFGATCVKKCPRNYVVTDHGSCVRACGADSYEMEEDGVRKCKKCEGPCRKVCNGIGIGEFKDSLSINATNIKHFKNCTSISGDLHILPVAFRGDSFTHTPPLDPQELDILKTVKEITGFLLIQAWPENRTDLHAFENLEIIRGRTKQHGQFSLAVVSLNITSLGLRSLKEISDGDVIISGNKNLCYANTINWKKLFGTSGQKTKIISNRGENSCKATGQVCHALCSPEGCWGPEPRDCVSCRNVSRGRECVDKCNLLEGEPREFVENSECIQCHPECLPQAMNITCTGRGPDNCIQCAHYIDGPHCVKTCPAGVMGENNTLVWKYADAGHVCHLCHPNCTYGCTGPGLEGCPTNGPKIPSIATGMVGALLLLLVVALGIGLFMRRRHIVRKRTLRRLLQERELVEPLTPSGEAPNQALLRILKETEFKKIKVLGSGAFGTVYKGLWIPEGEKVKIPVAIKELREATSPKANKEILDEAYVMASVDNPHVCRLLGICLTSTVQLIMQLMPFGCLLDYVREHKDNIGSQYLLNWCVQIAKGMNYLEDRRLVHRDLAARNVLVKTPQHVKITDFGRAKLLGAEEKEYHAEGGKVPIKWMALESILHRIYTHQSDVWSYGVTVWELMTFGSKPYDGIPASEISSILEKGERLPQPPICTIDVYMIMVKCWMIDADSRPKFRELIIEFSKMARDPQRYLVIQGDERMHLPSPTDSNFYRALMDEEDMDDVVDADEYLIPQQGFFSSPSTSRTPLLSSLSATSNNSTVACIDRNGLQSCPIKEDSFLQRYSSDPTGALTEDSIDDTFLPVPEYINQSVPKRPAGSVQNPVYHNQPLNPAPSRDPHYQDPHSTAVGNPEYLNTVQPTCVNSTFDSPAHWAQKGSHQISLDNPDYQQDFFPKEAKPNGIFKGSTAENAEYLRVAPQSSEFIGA
T1 sequence (P00533 with tags, fused parts or gaps DEL746-750/T790M, form open): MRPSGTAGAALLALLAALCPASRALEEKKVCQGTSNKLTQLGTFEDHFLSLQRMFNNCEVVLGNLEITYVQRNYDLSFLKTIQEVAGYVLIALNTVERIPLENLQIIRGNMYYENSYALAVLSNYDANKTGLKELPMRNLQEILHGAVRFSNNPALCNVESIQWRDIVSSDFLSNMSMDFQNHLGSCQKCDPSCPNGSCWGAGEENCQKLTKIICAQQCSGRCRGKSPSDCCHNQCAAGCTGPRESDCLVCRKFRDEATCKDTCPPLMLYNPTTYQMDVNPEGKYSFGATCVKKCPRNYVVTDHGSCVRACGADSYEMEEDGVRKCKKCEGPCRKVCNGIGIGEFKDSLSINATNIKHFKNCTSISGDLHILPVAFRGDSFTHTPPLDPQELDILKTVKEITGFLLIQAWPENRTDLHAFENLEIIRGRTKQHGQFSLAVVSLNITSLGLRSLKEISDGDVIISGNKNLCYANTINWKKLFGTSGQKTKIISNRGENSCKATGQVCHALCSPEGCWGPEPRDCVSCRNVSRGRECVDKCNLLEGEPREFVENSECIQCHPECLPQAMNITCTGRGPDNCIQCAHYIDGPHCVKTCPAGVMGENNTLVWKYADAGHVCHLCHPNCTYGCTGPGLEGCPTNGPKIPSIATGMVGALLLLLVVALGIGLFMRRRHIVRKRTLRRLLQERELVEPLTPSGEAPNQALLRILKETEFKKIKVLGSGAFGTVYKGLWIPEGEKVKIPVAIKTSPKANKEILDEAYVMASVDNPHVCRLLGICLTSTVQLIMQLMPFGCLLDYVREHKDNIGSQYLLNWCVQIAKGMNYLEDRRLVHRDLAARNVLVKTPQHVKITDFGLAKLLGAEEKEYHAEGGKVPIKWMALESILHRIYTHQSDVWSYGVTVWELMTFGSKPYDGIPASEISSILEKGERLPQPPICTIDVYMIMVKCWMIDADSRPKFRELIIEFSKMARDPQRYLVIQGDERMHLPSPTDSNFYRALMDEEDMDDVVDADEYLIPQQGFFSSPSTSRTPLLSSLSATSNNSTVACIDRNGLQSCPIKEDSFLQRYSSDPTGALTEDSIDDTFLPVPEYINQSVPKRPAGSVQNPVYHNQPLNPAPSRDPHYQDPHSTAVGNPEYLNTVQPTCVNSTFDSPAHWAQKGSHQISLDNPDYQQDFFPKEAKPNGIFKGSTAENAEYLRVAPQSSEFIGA

In the case of `COCC#CC(=O)Nc1cc(Nc2ncc(Cl)c(Nc3ccccc3P(C)(C)=O)n2)c(OC)cc1N1CCC(N(C)C)C1` (stereo not drawn) [Example 111, N-(5-((5-chloro-4-((2-(dimethylphosphoryl)phenyl)amino)pyrimidin-2-yl)amino)-2-(3-(dimethylamino)pyrrolidin-1-yl)-4-methoxyphenyl)-4-methoxybut-2-ynamide], the IC50 is no less than 250 nM in test [1] (BAF3 parental cells), less than 50 nM in test [4] (setting [5]), less than 50 nM on EGFR L858R/T790M (setting [5]) and less than 50 nM at EGFR L858R (setting [5]). The GI50 in test [2] and in test [3] was less than 50 nM each time.
Take `C=CC(=O)Nc1cc(Nc2ncc(Cl)c(Nc3ccccc3P(C)(C)=O)n2)c(OC)cc1C#CCN1CCCCCC1` [Example 165, N-(2-(3-(azepan-1-yl)prop-1-yn-1-yl)-5-((5-chloro-4-((2-(dimethylphosphoryl)phenyl)amino)pyrimidin-2-yl)amino)-4-methoxyphenyl)acrylamide]: the IC50 in test [1] (BAF3 parental cells) is no less than 250 nM; in test [4] (setting [5]), less than 50 nM; on EGFR L858R/T790M (setting [5]), less than 50 nM; at EGFR L858R (setting [5]), less than 50 nM. Also, the GI50 in test [2] and in test [3] was less than 50 nM throughout.
Consider `C=CC(=O)Nc1cc(Nc2ncc(Cl)c(Nc3ccccc3P(C)(C)=O)n2)c(OC)cc1N1CCCN(C)CC1` [Example 25, N-(5-((5-chloro-4-((2-(dimethylphosphoryl)phenyl)amino)pyrimidin-2-yl)amino)-4-methoxy-2-(4-methyl-1,4-diazepan-1-yl)phenyl)acrylamide], for which the IC50 in test [1] (BAF3 PARENTAL cells (control)) is no less than 250 nM; in test [4] (human EGFR native sequence), less than 50 nM; on EGFR L858R/T790M (setting [6]), less than 50 nM; at EGFR L858R (EGFR L858R), less than 50 nM. The GI50 in test [2] and in test [3] was less than 50 nM in each case.
In the case of `COc1ccc(NC(=O)/C=C/C(=O)N(C)C)cc1Nc1ncc(Cl)c(Nc2ccccc2P(C)(C)=O)n1` [Example 60, N1-(3-((5-chloro-4-((2-(dimethylphosphoryl)phenyl)amino)pyrimidin-2-yl)amino)-4-methoxyphenyl)-N4,N4-dimethylfumaramide], the IC50 in test [1] (BAF3 PARENTAL cells (control)) was no less than 250 nM; in test [4] (human EGFR native sequence) it was no less than 250 nM; on EGFR L858R/T790M (setting [6]), 101 to 250 nM; at EGFR L858R (EGFR L858R) it was 50 to 100 nM. The GI50 in test [2] and in test [3] was no less than 250 nM each time.
Regarding `CCOC(=O)/C=C/C(=O)Nc1ccc(OC)c(Nc2ncc(Cl)c(Nc3ccccc3P(C)(C)=O)n2)c1` [Example 75, (E)-ethyl 4-((3-((5-chloro-4-((2-(dimethylphosphoryl)phenyl)amino)pyrimidin-2-yl)amino)-4-methoxyphenyl)amino)-4-oxobut-2-enoate], the IC50 in test [1] (BAF3 PARENTAL cells (control)) was no less than 250 nM; in test [4] (human EGFR native sequence) it was less than 50 nM; on EGFR L858R/T790M (setting [6]), less than 50 nM; at EGFR L858R (EGFR L858R) it was less than 50 nM. Further, the GI50 in test [2] and in test [3] was less than 50 nM in each case.
On to `C=CC(=O)Nc1ccc(OC)c(Nc2ncc(Cl)c(Nc3ccc(OC4CCOC4)cc3P(C)(C)=O)n2)c1` (stereo not drawn) [Example 99, N-(3-((5-chloro-4-((2-(dimethylphosphoryl)-4-((tetrahydrofuran-3-yl)oxy)phenyl)amino)pyrimidin-2-yl)amino)-4-methoxyphenyl)acrylamide], for which the IC50 in test [1] (BAF3 PARENTAL cells (control)) was no less than 250 nM; in test [4] (human EGFR native sequence), less than 50 nM; on EGFR L858R/T790M (setting [6]) it was less than 50 nM; on EGFR L858R (EGFR L858R), less than 50 nM. The GI50 in test [2] is less than 50 nM; in test [3], 50 to 100 nM.
Turning to `C=CC(=O)Nc1cc(Nc2ncc(Cl)c(Nc3ccccc3P(C)(C)=O)n2)c(OC)cc1C#CCN(C(C)C)C(C)C` [Example 158, N-(5-((5-chloro-4-((2-(dimethylphosphoryl)phenyl)amino)pyrimidin-2-yl)amino)-2-(3-(diisopropylamino)prop-1-yn-1-yl)-4-methoxyphenyl)acrylamide], the IC50 was no less than 250 nM in test [1] (BAF3 parental cells), less than 50 nM in test [4] (setting [5]), less than 50 nM on EGFR L858R/T790M (setting [5]) and less than 50 nM at EGFR L858R (setting [5]). Also, the GI50 in test [2] and in test [3] was less than 50 nM throughout.
On to `COc1ccc(NC(=O)C#Cc2ccccc2)cc1Nc1ncc(Cl)c(Nc2ccccc2P(C)(C)=O)n1` [Example 93, N-(3-((5-chloro-4-((2-(dimethylphosphoryl)phenyl)amino)pyrimidin-2-yl)amino)-4-methoxyphenyl)-3-phenylpropiolamide], for which the IC50 in test [1] (BAF3 PARENTAL cells (control)) was no less than 250 nM; in test [4] (human EGFR native sequence), no less than 250 nM; on EGFR L858R/T790M (setting [6]), less than 50 nM; on EGFR L858R (EGFR L858R) it was less than 50 nM. Further, the GI50 in test [2] and in test [3] was less than 50 nM each time.
With `COc1ccc(NC(=O)CCl)cc1Nc1ncc(C)c(Nc2ccccc2P(C)(C)=O)n1` [Example 141, 2-chloro-N-(3-((4-((2-(dimethylphosphoryl)phenyl)amino)-5-methylpyrimidin-2-yl)amino)-4-methoxyphenyl)acetamide], the IC50 in test [1] (BAF3 parental cells) was no less than 250 nM; in test [4] (setting [5]) it was less than 50 nM; on EGFR L858R/T790M (setting [5]) it was less than 50 nM; at EGFR L858R (setting [5]) it was less than 50 nM. Also, the GI50 in test [2] and in test [3] was less than 50 nM throughout.
In the case of `C=CC(=O)Nc1cc(Nc2ncc(Cl)c(Nc3ccccc3P(C)(C)=O)n2)c(OC)cc1OC1COC1` [Example 9, N-(5-((5-chloro-4-((2-(dimethylphosphoryl)phenyl)amino)pyrimidin-2-yl)amino)-4-methoxy-2-(oxetan-3-yloxy)phenyl)acrylamide], the IC50 in test [1] (BAF3 PARENTAL cells (control)) was no less than 250 nM; in test [4] (human EGFR native sequence) it was no less than 250 nM; at EGFR L858R/T790M (setting [6]), less than 50 nM; on EGFR L858R (EGFR L858R), less than 50 nM. The figures for the GI50 in test [2] and in test [3] were less than 50 nM and 50 to 100 nM, respectively.
As to `C=CC(=O)Nc1ccc(OCCN(C)C)c(Nc2ncc(Cl)c(Nc3ccccc3P(C)(C)=O)n2)c1` [Example 117, N-(3-((5-chloro-4-((2-(dimethylphosphoryl)phenyl)amino)pyrimidin-2-yl)amino)-4-(2-(dimethylamino)ethoxy)phenyl)acrylamide], the concentration for half-maximal inhibition (IC50) (in test [1] (BAF3 parental cells); in test [4] (setting [5]); on EGFR L858R/T790M (setting [5]); at EGFR L858R (setting [5])) was no less than 250 nM throughout. In addition, the GI50 in test [2] and in test [3] was no less than 250 nM each time.
As for `COc1cc(N2CCOCC2)c(NC(=O)C#CCCN(C)C)cc1Nc1ncc(Cl)c(Nc2ccccc2P(C)(C)=O)n1` [Example 114, N-(5-((5-chloro-4-((2-(dimethylphosphoryl)phenyl)amino)pyrimidin-2-yl)amino)-4-methoxy-2-morpholinophenyl)-5-(dimethylamino)pent-2-ynamide], the IC50 is no less than 250 nM in test [1] (BAF3 parental cells), less than 50 nM in test [4] (setting [5]), less than 50 nM on EGFR L858R/T790M (setting [5]) and less than 50 nM at EGFR L858R (setting [5]). Moreover, the GI50 in test [2] and in test [3] was less than 50 nM in each case.
Take `C=CC(=O)Nc1cc(Nc2ncc(Cl)c(Nc3ccccc3P(C)(C)=O)n2)c(OC)cc1OCCN1CCCCC1` [Example 8, N-(5-((5-chloro-4-((2-(dimethylphosphoryl)phenyl)amino)pyrimidin-2-yl)amino)-4-methoxy-2-(2-(piperidin-1-yl)ethoxy)phenyl)acrylamide]: the IC50 in test [1] (BAF3 PARENTAL cells (control)) is no less than 250 nM; in test [4] (human EGFR native sequence), less than 50 nM; on EGFR L858R/T790M (setting [6]), less than 50 nM; on EGFR L858R (EGFR L858R), less than 50 nM. Moreover, the GI50 in test [2] and in test [3] was less than 50 nM each time.
